Assay results taken from ChEMBL document CHEMBL2429858, “Five new degraded diterpenoids from Trigonostemon xyphophylloides” (Bioorg Med Chem Lett, 2013).

How the values were obtained:
SGC-7901 = test: Cytotoxicity against human SGC7901 cells after 48 hrs by MTT assay; format: functional, cell-based; details: SGC-7901, 48 h
[1] = Cytotoxicity against human SPCA1 cells after 48 hrs by MTT assay; format: functional, cell-based; details: SPCA1, 48 h

`CO[C@@]12[C@H](COC(N)=O)C3=C(C(=O)C(C)=C(N)C3=O)N1C[C@@H]1N[C@@H]12` [MITOMYCIN] showed an IC50 (SGC-7901) of 2.05 µM and an IC50 [1] of 1.68 µM.

Work on `COc1c(O)c(C)cc2c1C1=CC(=O)C(C)(C)C1=CC2=O` [TRIGOXYPHIN N] yielded an IC50 (SGC-7901) of 5 µM and an IC50 [1] of 4.08 µM.
